According to US20250066323A1, “INHIBITORS OF HUMAN RESPIRATORY SYNCYTIAL VIRUS AND METAPNEUMOVIRUS” (priority 2023, published 2025):
Like-named read-outs stand apart in the source and are kept apart here.

Experiments:
RSV-A2-GFP = RSV-A2-GFP viral replication assay; type: cell-based, Human Respiratory Syncytial Virus
From the text: GFP sequence was derived from pJTI™ R4 Dest CMV N-EmGFP pA Vector (Invitrogen) and was cloned into the intergenic sequence between wild-type RSV-A2 P and M genes using standard recombineering techniques. Recombinant RSV-A2-GFP was propagated in Hep2 cells (human cells contains HeLa marker chromosomes and were derived via HeLa contamination, ATCC CCL-23) with infection Multiplicity of Infection (MOI) of 0.1. Virus was harvested 3 days after infection by collecting all culture material and freeze-thaw the viral culture in liquid nitrogen for at least 5 times. To generating virus working stocks, thaw frozen samples in 37° C. water bath then centrifuge at 218 g for 15 min at 4° C. Add 1/10 of 10×SPG (Biological Industries 06-3061-01-5A), mix, aliquot supernatant, and quick-freeze in liquid nitrogen then transfer to −80° C. freezer for storage. Virus titer was determined by automated plaque assay in HEp-2 cells following methods described previously (Wen Z. et al.; J Virol Methods. 2019 January; 263:88-95).
Calu-1 cells (human lung epidermoid carcinoma, ATCC HTB-54) assay ready freezedown (ARF generation described separately) were used in assays. Compound plates were prepared by dispensing compounds dissolved in DMSO into wells of 384 well coming 3985 polystyrene flat clear bottom optical imaging microplates (202.5 nL/well) using an ECHO acoustic dispenser. Each compound was tested in a 10-point serial 3-fold dilution (typical final concentrations: 403 nM-0.02 nM and 40.3 nM-0.002 nM). […] To set up the assay, thaw ARF vial(s) in 37° C. water bath until small ice crystal remain and resuspend into assay media (DMEM containing 2% FBS, 100 U/ml Penicillin-Streptomycin). Count cells using default parameters on ViCell and dilute to 20,000 cells per ml in assay media. Add RSV GFP to cells at 24,000 pfu/ml (MOI=1.2). Mix by gentle inversion. 10 μl/well of 100% DMSO was dispensed to CellTiter-Glo (CTG) assay Max_E controls wells. Dispense cells at 50 μl/well using Bravo and 50 μl filtered tips into compound plates. Cover plates with MicroClime lids loaded with 7.5 ml of assay media to minimize evaporation. Incubate at 37 degrees C. and 5% CO2 for 96 hrs. Following incubation, distinct, GFP-expressing cells are counted using an Acumen imaging system with appropriate settings. A same-well CTG assay is performed by adding 10 μl/well reconstituted CellTiter-Glo reagent (Promega G7573) and reading plates on PerkinElmer Envision according to manufacturer's instructions. Raw data were loaded and analyzed in ActivityBase. Antiviral IC50 and cytotoxicity CC50 values were determined using a 4 parameter logistic fit based on the Levenberg-Marquardt algorithm. Model: 205-4 Parameter Logistic.
Calu-1 cells were purchased from ATCC (Cat #HTB-54) and are expanded in growth media (DMEM containing 10% FBS, 100 U/ml Penicillin-Streptomycin). To make ARF, remove and discard cell culture media, briefly rinse the cell layer with PBS to remove all traces of serum. Add 2.5 ml of TrypLE Express solution and incubate until cells dislodge, then add growth media and resuspend the cells by gentle pipetting. Count cells for concentration and determine viability using a ViCell. Centrifuge at RT, 300 g for 5 min to pellet cells. Gently aspirate supernatant, flick pellet to loosen cells. Resuspend cells in an appropriate volume of freezing medium (DMEM containing 10% DMSO, 10% FBS, 100 U/ml Penicillin-Streptomycin) to achieve 5×10^6/ml. Transfer 1 ml of cell suspension to freezing vials. Put vials to CoolCell cryopreservation container and place CoolCell container upright in a −80° C. freezer overnight before transferring vials to liquid nitrogen vapor for storage.

hMPV-GFP = hMPV-GFP viral replication assay; type: cell-based, human metapneumovirus; details: read-out: hMPV EC50
Description: GFP expressing rgHMPV #3 p3 was generated in Dr. Buchholz's lab (Biacchesi S. et al., J Virol. 2007 June; 81(11): 6057-6067.) and propagated in VERO cells (kidney tissue derived from a normal, adult African green monkey. ATCC Cat #CCL-81) with infection Multiplicity of Infection (MOI) of 0.1. Virus was harvested 4 days after infection by collecting all culture material and freeze-thaw the viral culture in liquid nitrogen twice. To generating virus working stocks, thaw frozen samples in 37° C. water bath then centrifuge at 218 g for 15 min at 4° C. Add 1/10 of 10×SPG (Biological Industries 06-3061-01-5A), mix, aliquot supernatant, and quick-freeze in liquid nitrogen then transfer to −80° C. freezer for storage. Virus titer was determined by performing titration test in 96-well plates and calculate approximate virus titer using GFP event/well data.
Compound plates were prepared by dispensing compounds dissolved in DMSO into wells of 384 well coming 3985 polystyrene flat clear bottom optical imaging microplates (202.5 nL/well) using an ECHO acoustic dispenser. Each compound was tested in a 10-point serial 3-fold dilution (typical final concentrations: 40,300 nM-2 nM). […] Continuous culture of VERO cells were maintained in complete culture media (OptiMEM supplemented with 2 mM GlutaMAX™ and 100 U/ml Penicillin-Streptomycin). To set up the assay, trypsinize VERO cells with 0.25% Trypsin-EDTA until cells dislodge, then re-suspend cells with 1 mL FBS. Spin down cells at 300 g for 5 min and wash cells twice in culture media, then count cells using default parameters on ViCell. Cells were then diluted to 100,000 cells/ml (5,000 cells/50 μl) in complete culture media+TrypLE Select (80 μl/ml). Add hMPV-GFP virus to cells at 125,000 pfu/ml (MOI=1.25). Mix by gentle inversion. 10 μl/well of 100% DMSO was dispensed to CellTiter-Glo (CTG) assay Max_E controls wells. Dispense cells at 50 μl/well using Bravo and 50 μl filtered tips into compound plates. Cover plates with MicroClime lids loaded with 7.5 ml of assay media to minimize evaporation. Lightly shake plate for 10 minutes at room temperature then incubate at 37 degrees C. and 5% CO2 for 48 hrs. Following incubation, distinct, GFP-expressing cells are counted using an Acumen imaging system with appropriate settings. A same-well CTG assay is performed by adding 10 μl/well reconstituted CellTiter-Glo reagent (Promega G7573) and reading plates on PerkinElmer Envision according to manufacturer's instructions. Raw data were loaded and analyzed in ActivityBase. Antiviral IC50 and cytotoxicity CC50 values were determined using a 4 parameter logistic fit based on the Levenberg-Marquardt algorithm. Model: 205-4 Parameter Logistic.

[1] = read-out: RSV EC50, Calu-1 cells, RSV-A2-GFP MOI=1.2, 96 hrs, GFP-expressing cells counted
[2] = human metapneumovirus, Vero, 48 h
[3] = human respiratory syncytial virus, Calu-1, 96 h, read-out: RSV EC50, Calu-1 cells, RSV-A2-GFP MOI=1.2, 96 hrs, GFP-expressing cells counted

| SMILES | EC50 (RSV-A2-GFP; [1]) [nM] | EC50 (hMPV-GFP; [2]) [nM] | EC50 (hMPV-GFP; VERO cells, hMPV-GFP MOI=1.25, 48 hrs, GFP-expressing cells counted) [nM] | EC50 (RSV-A2-GFP; [3]) [nM] |
| --- | --- | --- | --- | --- |
| CCOc1cc(C(=O)NCC(C)(O)c2cc(C(C)(C)N)cc(-c3ccc(F)cc3)n2)n(C)n1 (single isomer, unassigned) [Example 01-A] | > 100 | > 100 | – | – |
| CCOc1cc(C(=O)NCC(C)(O)c2cc(C(C)(C)N)cc(-c3ccc(F)cc3)n2)n(C)n1 (single isomer, unassigned) [Example 01-B] | < 10 | – | > 100 | – |
| Cn1nc(-n2cccn2)cc1C(=O)NCC(C)(O)c1cc(C(C)(C)N)cc(-c2ccc(F)cc2)n1 (single isomer, unassigned) [Example 02-B] | – | > 100 | – | < 10 |
| Cn1nc(-c2ccon2)cc1C(=O)NCC(C)(O)c1cc(C(C)(C)N)cc(-c2ccc(F)cc2)n1 (single isomer, unassigned) [Example 03-B] | – | > 100 | – | < 10 |
| Cn1nc(-c2ncco2)cc1C(=O)NCC(C)(O)c1cc(C(C)(C)N)cc(-c2ccc(F)cc2)n1 (single isomer, unassigned) [Example 04-B] | – | > 100 | – | < 10 |
| Cn1nc(-c2cscn2)cc1C(=O)NCC(C)(O)c1cc(C(C)(C)N)cc(-c2ccc(F)cc2)n1 (single isomer, unassigned) [Example 05-B] | – | > 100 | – | < 10 |
| CCn1nc(-c2cscn2)cc1C(=O)NCC(C)(O)c1cc(C(C)(C)N)cc(-c2ccc(F)cc2)n1 (single isomer, unassigned) [Example 06-B] | – | > 100 | – | < 10 |
| Cc1nc(-c2cscn2)sc1C(=O)NCC(C)(O)c1cc(C(C)(C)N)cc(-c2ccc(F)cc2)n1 (single isomer, unassigned) [Example 07-B] | – | > 100 | – | < 10 |
| CC(C)(N)c1cc(-c2ccc(F)cc2)nc(C(C)(O)CNC(=O)c2sc(-c3cscn3)nc2C2CC2)c1 (single isomer, unassigned) [Example 08-B] | – | > 100 | – | < 10 |
| CC(C)(N)c1cc(-c2ccc(F)cc2)nc(C(C)(O)CNC(=O)c2cc(-c3cscn3)ns2)c1 (single isomer, unassigned) [Example 09-B] | – | > 100 | – | < 10 |
| CC(C)(N)c1cc(-c2ccc(F)cc2)nc(C(C)(O)CNC(=O)c2cc(-c3ncccn3)ns2)c1 (single isomer, unassigned) [Example 10-B] | – | > 100 | – | < 10 |
| COc1nn(-c2ncccn2)cc1C(=O)NCC(C)(O)c1cc(C(C)(C)N)cc(-c2ccc(F)cc2)n1 (single isomer, unassigned) [Example 11-B] | – | > 100 | – | < 10 |
| Cn1nc(-n2cccn2)cc1C(=O)NCC(C)(O)c1cc(C(C)(C)N)cc(-c2ccc(Cl)c(F)c2)n1 (single isomer, unassigned) [Example 39-B, N-(2-(4-(2-aminopropan-2-yl)-6-(4-chloro-3-fluorophenyl)pyridin-2-yl)-2-hydroxypropyl)-1′-methyl-1′H-[1,3′-bipyrazole]-5′-carboxamide] | – | – | – | < 10 |
| Cn1nc(-n2cccn2)cc1C(=O)NCC(C)(O)c1cc(C(C)(C)N)cc(Cc2ccc(F)cc2)n1 (single isomer, unassigned) [Example 40-B, N-(2-(4-(2-aminopropan-2-yl)-6-(4-fluorobenzyl)pyridin-2-yl)-2-hydroxypropyl)-1′-methyl-1′H-[1,3′-bipyrazole]-5′-carboxamide] | – | – | – | < 10 |
| Cn1nc(-n2cccn2)cc1C(=O)NCC(O)(c1cc(C(C)(C)N)cc(-c2ccc(C(F)F)cc2)n1)C(F)(F)F (single isomer, unassigned) [Example 41-A, N-(2-(4-(2-aminopropan-2-yl)-6-(4-(difluoromethyl)phenyl)pyridin-2-yl)-3,3,3-trifluoro-2-hydroxypropyl)-1′-methyl-1′H-[1,3′-bipyrazole]-5′-carboxamide] | – | – | – | < 10 |
| Cn1nc(-n2cccn2)cc1C(=O)NCC(O)(c1cc(C(C)(C)N)cc(-c2ccc(C(F)(F)F)cc2)n1)C(F)(F)F (single isomer, unassigned) [Example 42-A, N-(2-(4-(2-aminopropan-2-yl)-6-(4-(trifluoromethyl)phenyl)pyridin-2-yl)-3,3,3-trifluoro-2-hydroxypropyl)-1′-methyl-1′H-[1,3′-bipyrazole]-5′-carboxamide] | – | – | – | < 10 |
| Cn1nc(-n2cccn2)cc1C(=O)NCC(O)(c1cc(C(C)(C)N)cc(-c2ccc(F)c(F)c2)n1)C(F)(F)F (single isomer, unassigned) [Example 43-A, N-(2-(4-(2-aminopropan-2-yl)-6-(3,4-difluorophenyl)pyridin-2-yl)-3,3,3-trifluoro-2-hydroxypropyl)-1′-methyl-1′H-[1,3′-bipyrazole]-5′-carboxamide] | – | – | – | < 10 |
| Cn1nc(-n2cccn2)cc1C(=O)NCC(O)(c1cc(C(C)(C)N)cc(-c2ccc(F)cc2F)n1)C(F)(F)F (single isomer, unassigned) [Example 44-A, N-(2-(4-(2-aminopropan-2-yl)-6-(2,4-difluorophenyl)pyridin-2-yl)-3,3,3-trifluoro-2-hydroxypropyl)-1′-methyl-1′H-[1,3′-bipyrazole]-5′-carboxamide] | – | – | – | < 10 |
| Cc1cc(F)ccc1-c1cc(C(C)(C)N)cc(C(O)(CNC(=O)c2cc(-n3cccn3)nn2C)C(F)(F)F)n1 (single isomer, unassigned) [Example 45-A, N-(2-(4-(2-aminopropan-2-yl)-6-(4-fluoro-2-methylphenyl)pyridin-2-yl)-3,3,3-trifluoro-2-hydroxypropyl)-1′-methyl-1′H-[1,3′-bipyrazole]-5′-carboxamide] | – | – | – | < 10 |
